Activity and inhibition data for two molecules are collected here from ChEMBL document CHEMBL4257548, “Phenothiazine antioxidants increase mitochondrial biogenesis and frataxin levels in Friedreich's ataxia cells” (Medchemcomm, 2018).

Active and inactive are the calls of the source. The calls are words filed in the database; no cut-off is given here.

For series [1], the system named is GM16216. Put plainly: Cytoprotection against DEM-induced toxicity in human GM16216 cells assessed as increase in cell viability pretreated for 16 hrs followed by DEM addition and measured after 5 hrs by live/dead staining based flow cytometry. Format: functional. For orientation: In flow cytometry, cells or beads pass a laser one at a time.
Series [2] concerns GM15850. As to the kind of experiment: Cytoprotection against DEM-induced toxicity in human GM15850 cells assessed as increase in cell viability pretreated for 16 hrs followed by DEM addition and measured after 5 hrs by live/dead staining based flow cytometry. The format is functional.
Series [3] concerns GM16216. As to the kind of experiment: Effect on mitochondrial membrane potential in human GM16216 cells assessed as loss of mitochondrial membrane potential at 0.25 uM after 16 hrs by JC1 staining based flow cytometry (reference value: 13%). Format: functional.
Series [4] relates to GM16216. Put plainly: Effect on mitochondrial membrane potential in human GM16216 cells assessed as intact mitochondrial membrane at 0.25 uM after 16 hrs by JC1 staining based flow cytometry (reference value: 87%). Format: functional.
The subject of series [5] is GM15850. As to the kind of experiment: Effect on mitochondrial membrane potential in human GM15850 cells assessed as loss of mitochondrial membrane potential at 0.25 uM after 16 hrs by JC1 staining based flow cytometry (reference value: 13%). The format is functional.
The test system of series [6] is GM15850. As to the kind of experiment: Effect on mitochondrial membrane potential in human GM15850 cells assessed as intact mitochondrial membrane at 0.25 uM after 16 hrs by JC1 staining based flow cytometry (reference value: 87%). Format: functional.
The test system of series [7] is GM15850. Put plainly: Cytotoxicity against human GM15850 cells at 0.25 to 2.5 uM after 24 to 48 hrs by live/dead staining-based flow cytometry. Format: cell-based. The following applies: gm15850, 2.5 µM.
Series [8] deals with GM16216. As to the kind of experiment: Cytotoxicity against human GM16216 cells at 0.25 to 2.5 uM after 24 to 48 hrs by live/dead staining-based flow cytometry. The format is cell-based. The following applies: gm16216, 2.5 µM.
Series [9] relates to GM15850. Put plainly: Inhibition of ATP production in human GM15850 cells at 2.5 uM after 24 hrs by Vialight reagent based luminescence assay. Format: functional, cell-based.
Series [10] has as its system GM16216. As to the kind of experiment: Inhibition of ATP production in human GM16216 cells at 2.5 uM after 24 hrs by Vialight reagent based luminescence assay. Format: functional, cell-based.
Series [11] deals with GM15850. As to the kind of experiment: Increase in ATP production in human GM15850 cells at 0.1 uM after 24 hrs by Vialight reagent based luminescence assay. Format: functional, cell-based.
The subject of series [12] is GM16216. As to the kind of experiment: Increase in ATP production in human GM16216 cells at 0.1 uM after 24 hrs by Vialight reagent based luminescence assay. Format: functional, cell-based.
Series [13] relates to GM15850. As to the kind of experiment: Effect on ATP production in human GM15850 cells at 0.5 uM after 24 hrs by Vialight reagent based luminescence assay. Format: functional, cell-based.
Series [14] concerns GM16216. As to the kind of experiment: Effect on ATP production in human GM16216 cells at 0.5 uM after 24 hrs by Vialight reagent based luminescence assay. The format is functional, cell-based.
The test system of series [15] is GM15850. As to the kind of experiment: Increase in frataxin expression in human GM15850 cells at 50 to 250 nM after 24 to 48 hrs by ELISA. The format is functional, cell-based. For orientation: In an ELISA, binding on a coated surface is turned into a signal by an enzyme label.
The test system of series [16] is GM16216. Put plainly: Increase in frataxin expression in human GM16216 cells at 50 to 250 nM after 24 to 48 hrs by ELISA. The format is functional, cell-based.
Series [17] relates to GM15850. As to the kind of experiment: Induction of mitochondrial biogenesis in human GM15850 cells assessed as increase in ratio of COX1 to SDH-A protein levels at 50 to 250 nM after 24 to 48 hrs by ELISA. The format is functional, cell-based.
The subject of series [18] is GM16216. As to the kind of experiment: Induction of mitochondrial biogenesis in human GM16216 cells assessed as increase in ratio of COX1 to SDH-A protein levels at 50 to 250 nM after 24 to 48 hrs by ELISA. Format: functional, cell-based.
In series [19] the test system is GM15850. As to the kind of experiment: Effect on ATP production in human GM15850 cells at 0.1 to 0.5 uM after 24 hrs by Vialight reagent based luminescence assay. Format: functional, cell-based.
Series [20] deals with GM16216. Put plainly: Effect on ATP production in human GM16216 cells at 0.1 to 0.5 uM after 24 hrs by Vialight reagent based luminescence assay. The format is functional, cell-based.

For the molecule `CCCCCCCCCCCc1cc2nc3ccc(N(C)C)cc3sc-2cc1=O`, the Activity entry in [1] is “Dose-dependent effect”; in series [2] it was “Dose-dependent effect”; in series [3], 14%; in [4], 86%; in series [5], 14%; in series [6] it was 86%. The Activity result in series [7] and in [8] was “Non-Toxic” in each case. The inhibition result in series [9] and in series [10] was “Active” in each case. Also, the result in series [11], in series [12], in series [15], in [16], in [17] and in series [18] was Active. Besides, the result in series [13] and in [14] was inactive.
Consider `CCCCCCCCCCCCCc1cc2nc3ccc(N(C)C)cc3sc-2cc1=O`, for which the Activity was 13% in series [3]; 87% in [4]; 13% in [5]; 87% in [6]; “Non-Toxic” in series [7]; “Non-Toxic” in series [8]. The inhibition result in series [9] and in series [10] was “Active” in each case. The outcome in series [19] and in series [20] was inactive. The outcome in series [15], in [16], in [17] and in series [18] was Active.
